Measured values from PMC8308135 (2021).

Tested on: A15T3 dsDNA (DNA, duplex) AAAAAAAAAAAAAAATCGTCGTCGTCGTCGTCGAAAAAAAAAAAAAAAAAGCAGTTGATCGTTTGGATACCCTGG/TTCGACGACGACGACGACGATTT
Assay: fluorescence quenching, log[(F0-F)/F] against log[DNA]
Settings: unit not given; free DNA presumed to be A15T3 dsDNA; buffer of titration not stated

K: 0.026
Compound: COc1cccc2c1C(=O)c1c(O)c3c(c(O)c1C2=O)C[C@@](O)(C(=O)CO)C[C@@H]3O[C@H]1C[C@H](N)[C@H](O)[C@H](C)O1
